System: HFD-fed wild-type mice
Assay: Sphingolipid levels in tissues and serum of HFD-fed mice by mass spectrometry
Assay type: in vivo, mouse
Conditions: average ± SD
Experimental: Six-week-old wild-type male mice were fed HFD for 4 weeks or 7 months In total, 5 mg/Kg of PBS, Adiporon, AdipoRonPEG5, AdipoRonPEG6HTL were injected twice a day for 5 days. After 5 days of treatment, systemic test is performed, and serum (Before and after treatment), subcutaneous, epididymal, liver, heart samples were harvested for qPCR and sphingolipid analysis.
Flash-frozen tissue samples (~40 mg) in a borosilicate glass tube were quenched with 2.0 ml of organic extraction solvent (isopropanol: ethyl acetate, 15:85; v:v) and homogenized with a mechanical tissue disruptor. Immediately afterward, 20 μl of organic internal standard solution was added (Ceramide/Sphingoid Internal Standard Mixture II diluted 1:10 in ethanol). The mixture was vortexed for 20 s and sonicated in ultrasonic bath for 40 min at 40°C. The organic extract was allowed to reach room temperature, and 1.5 ml of HPLC water was added and a two-phase liquid-liquid extraction was performed. The upper phase was transferred to a new clean tube, and the lower aqueous phase containing the protein pellet was re-extracted with additional 2.0 ml of organic extraction solvent. The organic phases were combined and dried under nitrogen stream at 40°C. Dried extracts were stored at –80°C until analysis. For analysis of ceramides and sphingoid base species, the dried residues were reconstituted in 200 μl of methanol. Sphingomyelins required a sample dilution of 1:50 in methanol prior to analysis. Serum sphingolipids were extracted using a similar methodology requiring 25 μl of serum.
Liver, subcutaneous adipose tissue, pancreas, pancreatic islets were initially homogenized in 500 μl of cold PBS using an ultrasonic probe disruptor and keeping the sample on ice during sonication. In total, 50 μl of aqueous homogenate was aliquoted for protein determination. In total, 400 μl of the lysate was immediately quenched in 2.0 ml of organic extraction solvent.
In total, 5 μl of reconstituted samples was injected into an LC/MS/MS system for the analysis of ceramides and sphingoid bases, and 1 μl injection was required for the analysis of sphingomyelins. The system consisted of a Shimadzu LCMS-8050 triple-quadrupole mass spectrometer with the dual ion source operating in electrospray positive ionization mode. The mass spectrometer is coupled to a Shimadzu Nexera X2 UHPLC system equipped with three solvent delivery modules LC-30AD, three degassing units DGU-20A5R, an autosampler SIL-30ACMP, and a column oven CTO-20AC operating at 40°C (Shimadzu Scientific Instruments, Columbia, MD). Six sphingoid bases (d18:1 sphingosine, d18:1 sphingosine-1-phosphate, d18:1 deoxysphingosine, d18:0 sphinganine, d18:0 sphinganine-1-phosphate, d18:0 deoxysphinganine) and […] ceramide species and their metabolites (C16:0, C16:0 dihydroceramide, C16:0 glucosylceramide, C16:0 lactosylceramide, C16:0 sphingomyelin, C18:0, C18:0 dihydroceramide, C18:0 glucosylceramide, C18:0 sphingomyelin, C18:1, C20:0, C22:0, C22:0 glucosylceramide, C24:0, C24:0 dihydroceramide, C24:0 lactosylceramide, C24:0 sphingomyelin, C24:1, C24:1 dihydroceramide, C24:1 glucosylceramide, C24:1 sphingomyelin). Quantitative analysis of sphingolipids was achieved using selective reaction monitoring scan mode. Lipid separation was achieved by reverse phase LC on a 2.1 (i.d.) × 150 mm Ascentis Express C8, 2.7 micron (Supelco, Bellefonte, PA) column under gradient elution, using three different mobile phases: eluent A consisting of methanol/water/formic acid, 600/400/0.8, v/v/v with 5 mM ammonium formate, eluent B consisting of methanol/formic acid, 1,000/0.8, v/v with 5 mM ammonium formate, and eluent C consisting of CH3OH/CH2Cl2 350/650. The concentration of each metabolite was determined according to calibration curves using the peak-area ratio of analyte versus corresponding internal standard. Calibration curves were generated using serial dilutions of each target analyte.

[1] = scWAT, 5 mg/kg twice a day 5 days
[2] = serum at day 0 (before treatment)
[3] = serum at day 5, 5 mg/kg twice a day 5 days

Which results are given for `O=C(COc1ccc(C(=O)c2ccccc2)cc1)NC1CCN(Cc2ccc(OCCOCCOCCOCCOCCO)cc2)CC1` [AdipoRonPEG5]?
Hexosyl 16:0 [1]: 1715352.2 ± 544724.48 pg/mg; Hexosyl 18:0 [1]: 988756.1 ± 523374.82 pg/mg; Hexosyl 20:0 [1]: 624871.6 ± 310850.97 pg/mg; Hexosyl 22:0 [1]: 5932684.2 ± 2348171.67 pg/mg; Hexosyl 24:0 [1]: 25627611.9 ± 14360009.57 pg/mg; Hexosyl 24:1 [1]: 13838465.2 ± 7503242.47 pg/mg; Lactosyl 16:0 [1]: 44866.5 ± 53044.09 pg/mg; Lactosyl 18:0 [1]: 0.0 ± 0.0 pg/mg; Lactosyl 22:0 [1]: 41846.1 ± 19236.41 pg/mg; Lactosyl 24:1 [1]: 71016.8 ± 18649.91 pg/mg; Lactosyl C24:0 [1]: 41489.9 ± 21166.47 pg/mg; Sphingaine1P [1]: 40997.6 ± 18111.26 pg/mg; Sphinganine [1]: 35831.5 ± 25048.56 pg/mg; Sphingosine [1]: 65862.8 ± 45362.44 pg/mg; Sphingosine1P [1]: 45575.1 ± 20925.35 pg/mg; dCer 16:0 [1]: 12585.7 ± 3750.43 pg/mg; dCer 18:0 [1]: 16110.9 ± 4383.33 pg/mg; dCer 20:0 [1]: 82646.0 ± 51960.31 pg/mg; dCer 22:0 [1]: 65558.1 ± 8753.52 pg/mg; dCer 24:0 [1]: 87756.9 ± 10704.97 pg/mg; dCer 24:1 [1]: 103545.6 ± 21754.88 pg/mg; Cer 14:0 [2]: 9547.7 ± 2338.7 pg/mg; Cer 16:0 [2]: 29166.2 ± 4917.61 pg/mg; Cer 18:0 [2]: 8552.2 ± 1447.69 pg/mg; Cer 18:1 [2]: 0 pg/mg; Cer 20:0 [2]: 161041.9 ± 19909.93 pg/mg; Cer 22:0 [2]: 2248954.3 ± 477468.89 pg/mg; Cer 24:0 [2]: 1497571.4 ± 240898.06 pg/mg; Cer 24:1 [2]: 1109542.1 ± 131449.16 pg/mg; Cer 26:0 [2]: 11416.3 ± 5402.24 pg/mg; Cer 26:1 [2]: 0 pg/mg; DeoxySphinganie [2]: 0.0 ± 0.0 pg/mg; Deoxysphingosine [2]: 0.0 ± 0.0 pg/mg; Hexosyl 14:0 [2]: 2960.2 ± 1473.95 pg/mg; Hexosyl 16:0 [2]: 3186431.1 ± 124319.92 pg/mg; Hexosyl 18:0 [2]: 50804.8 ± 12885.62 pg/mg; Hexosyl 20:0 [2]: 212177.0 ± 30736.45 pg/mg; Hexosyl 22:0 [2]: 12426084.7 ± 1134587.25 pg/mg; Hexosyl 24:0 [2]: 1547284.6 ± 152581.98 pg/mg; Hexosyl 24:1 [2]: 4176146.7 ± 370105.27 pg/mg; Lactosyl 16:0 [2]: 97139.2 ± 3984.55 pg/mg; Lactosyl 18:0 [2]: 0.0 ± 0.0 pg/mg; Lactosyl 22:0 [2]: 67539.8 ± 8954.59 pg/mg; Lactosyl 24:1 [2]: 91085.1 ± 17618.54 pg/mg; Lactosyl C24:0 [2]: 106966.9 ± 12842.2 pg/mg; Sphingaine1P [2]: 236098.7 ± 23069.11 pg/mg; Sphinganine [2]: 40000.3 ± 8021.4 pg/mg; Sphingosine [2]: 34674.5 ± 9280.02 pg/mg; Sphingosine1P [2]: 626634.8 ± 40618.85 pg/mg; dCer 16:0 [2]: 19797.0 ± 3523.66 pg/mg; dCer 18:0 [2]: 11474.0 ± 1631.86 pg/mg; dCer 20:0 [2]: 4088.3 ± 831.07 pg/mg; dCer 22:0 [2]: 358570.9 ± 58282.32 pg/mg; dCer 24:0 [2]: 224332.4 ± 35925.97 pg/mg; dCer 24:1 [2]: 127711.1 ± 26772.71 pg/mg; Cer 14:0 [3]: 9929.6 ± 3137.7 pg/mg; Cer 16:0 [3]: 15778.4 ± 1918.13 pg/mg; Cer 18:0 [3]: 13708.7 ± 1433.97 pg/mg; Cer 18:1 [3]: 0 pg/mg; Cer 20:0 [3]: 132529.6 ± 32152.61 pg/mg; Cer 22:0 [3]: 1388023.2 ± 196403.0 pg/mg; Cer 24:0 [3]: 1824217.1 ± 192203.29 pg/mg; Cer 24:1 [3]: 1024425.3 ± 215659.12 pg/mg; Cer 26:0 [3]: 16852.6 ± 6836.06 pg/mg; Cer 26:1 [3]: 0 pg/mg; DeoxySphinganie [3]: 0.0 ± 0.0 pg/mg; Deoxysphingosine [3]: 0.0 ± 0.0 pg/mg; Hexosyl 14:0 [3]: 2152.8 ± 1534.14 pg/mg; Hexosyl 16:0 [3]: 4458327.8 ± 279958.81 pg/mg; Hexosyl 18:0 [3]: 102580.4 ± 20477.28 pg/mg; Hexosyl 20:0 [3]: 312105.6 ± 82139.38 pg/mg; Hexosyl 22:0 [3]: 7780658.1 ± 1388198.99 pg/mg; Hexosyl 24:0 [3]: 1624021.9 ± 177684.63 pg/mg; Hexosyl 24:1 [3]: 3454314.7 ± 273336.65 pg/mg; Lactosyl 16:0 [3]: 90624.9 ± 13005.26 pg/mg; Lactosyl 18:0 [3]: 0.0 ± 0.0 pg/mg; Lactosyl 22:0 [3]: 65007.0 ± 14500.42 pg/mg; Lactosyl 24:1 [3]: 157880.8 ± 14580.32 pg/mg; Lactosyl C24:0 [3]: 128620.1 ± 18235.69 pg/mg; Sphingaine1P [3]: 512041.7 ± 138152.22 pg/mg; Sphinganine [3]: 15276.5 ± 1962.03 pg/mg; Sphingosine [3]: 21363.8 ± 828.59 pg/mg; Sphingosine1P [3]: 1121550.6 ± 208889.89 pg/mg; dCer 16:0 [3]: 3599.4 ± 848.4 pg/mg; dCer 18:0 [3]: 4287.0 ± 935.1 pg/mg; dCer 20:0 [3]: 2230.0 ± 831.07 pg/mg; dCer 22:0 [3]: 88406.3 ± 22461.25 pg/mg; dCer 24:0 [3]: 67386.7 ± 20818.51 pg/mg; dCer 24:1 [3]: 33950.3 ± 10616.3 pg/mg

Source: publication PMC8327158, “PEGylated AdipoRon derivatives improve glucose and lipid metabolism under insulinopenic and high-fat diet conditions” (Journal of Lipid Research, 2021)
